For one assay, the system named is H3255 cells. Description: Anti-proliferation activity (MTS assay). It is filed as cell-based. As to conditions: Homo sapiens, NCI-H3255; H3255 lung cancer cells, 72 hours. How it is done:
MTS assay. […] Cell viability was assessed using the [3-(4,5-dimethylthiazol-2-yl)-5-(3-carboxymethoxyphenyl)-2-(4-sulfophenyl)-2H-tetrazolium inner salt (MTS) cell proliferation assay (Promega).
Background: Tetrazolium assays rely on reduction of a dye to a coloured formazan, in cell work by metabolically active cells.

Assay [1] concerns EGFR. Description: Multiplexed ExoSCOPE: drug occupancy in EVs secreted by drug-treated cells. It is filed as cell-based, human. As to conditions: heterogeneous cell mixture, 1 μM, within 24 hours, CD63/EGFR/EpCAM/MUC1 vesicle subpopulations.
Method: ExoSCOPE assay. We developed the ExoSCOPE assay for the direct analysis of both marker composition and drug occupancy in EVs. Samples were diluted 1:1 in PBS before ExoSCOPE analyses. We treated the diluted samples with click probe A3 (tagged with TCO, 100 nM) at 37° C. for 30 min before analysis. […] To measure EV marker composition (for a single marker analysis), we incubated the samples on antibody-functionalized ExoSCOPE sensors (1 μL, 10 min, room temperature), to achieve marker-specific EV capture. As a control experiment, sensors functionalized with IgG isotope control antibodies were used. Relative spectral changes (plasmonic signals) were measured to determine marker-specific EV binding. To measure EV drug occupancy, we used the click probes within sensor-bound vesicles to achieve enzymatic amplification. Specifically, we utilized the probes' click handles (TCO) to recruit tetrazine-conjugated horseradish peroxidase (HRP), which catalyzed in situ, enzymatic conversion of the soluble substrate (3,3′-diaminobenzidine, DAB) to form local, insoluble polymeric products on labeled vesicles; these insoluble deposits acted as optical products to amplify the plasmonic signals. […] Relative spectral changes were measured to determine probe labeling. […]
Assay [2] has as its target T1, EGFR (Homo sapiens, UniProt P00533, L858R).
T1 construct: endogenous in cells; host or cells: H3255 human lung cancer cells
As to the kind of experiment: Live-cell labeling of H3255 cells by click probes (in-gel fluorescence). In kind it is cell-based. How it is done: In-gel fluorescence analysis of cell labeling. Cell pellets were resuspended in Pierce IP lysis buffer (Thermo Scientific) supplemented with protease inhibitor cocktail (Thermo Scientific). After lysis on ice, the lysate was centrifuged at 2000 g, 4° C. for 2 min, and the supernatant was collected and normalized to 1.5 mg/mL with PBS. 40 μL of each sample was first blocked with iodoacetamide (15 mM, Sigma) for 30 min at room temperature in the dark, followed by click reaction with either DBCO-TMR or tetrazine-TMR (25 μM, Click Chemistry Tools) at room temperature for 30 min. The sample was then boiled in LDS sample buffer at 95° C. for 5 min, and resolved by 4-12% SDS-PAGE gel. Finally, the fluorescently labeled proteins were visualized with a ChemiDoc imaging system and subsequently stained with Bio-Safe Coomassie (Bio-Rad).

One may read the GI50 as the concentration that inhibits growth by half. Read a low GI50 as more potent growth inhibition.

The structures appear in SMILES notation. Where “and” joins values, the source holds several entries; their conditions need not be identical. Equal entries are not always repeated.

T1 sequence (P00533 25-1210 L858R): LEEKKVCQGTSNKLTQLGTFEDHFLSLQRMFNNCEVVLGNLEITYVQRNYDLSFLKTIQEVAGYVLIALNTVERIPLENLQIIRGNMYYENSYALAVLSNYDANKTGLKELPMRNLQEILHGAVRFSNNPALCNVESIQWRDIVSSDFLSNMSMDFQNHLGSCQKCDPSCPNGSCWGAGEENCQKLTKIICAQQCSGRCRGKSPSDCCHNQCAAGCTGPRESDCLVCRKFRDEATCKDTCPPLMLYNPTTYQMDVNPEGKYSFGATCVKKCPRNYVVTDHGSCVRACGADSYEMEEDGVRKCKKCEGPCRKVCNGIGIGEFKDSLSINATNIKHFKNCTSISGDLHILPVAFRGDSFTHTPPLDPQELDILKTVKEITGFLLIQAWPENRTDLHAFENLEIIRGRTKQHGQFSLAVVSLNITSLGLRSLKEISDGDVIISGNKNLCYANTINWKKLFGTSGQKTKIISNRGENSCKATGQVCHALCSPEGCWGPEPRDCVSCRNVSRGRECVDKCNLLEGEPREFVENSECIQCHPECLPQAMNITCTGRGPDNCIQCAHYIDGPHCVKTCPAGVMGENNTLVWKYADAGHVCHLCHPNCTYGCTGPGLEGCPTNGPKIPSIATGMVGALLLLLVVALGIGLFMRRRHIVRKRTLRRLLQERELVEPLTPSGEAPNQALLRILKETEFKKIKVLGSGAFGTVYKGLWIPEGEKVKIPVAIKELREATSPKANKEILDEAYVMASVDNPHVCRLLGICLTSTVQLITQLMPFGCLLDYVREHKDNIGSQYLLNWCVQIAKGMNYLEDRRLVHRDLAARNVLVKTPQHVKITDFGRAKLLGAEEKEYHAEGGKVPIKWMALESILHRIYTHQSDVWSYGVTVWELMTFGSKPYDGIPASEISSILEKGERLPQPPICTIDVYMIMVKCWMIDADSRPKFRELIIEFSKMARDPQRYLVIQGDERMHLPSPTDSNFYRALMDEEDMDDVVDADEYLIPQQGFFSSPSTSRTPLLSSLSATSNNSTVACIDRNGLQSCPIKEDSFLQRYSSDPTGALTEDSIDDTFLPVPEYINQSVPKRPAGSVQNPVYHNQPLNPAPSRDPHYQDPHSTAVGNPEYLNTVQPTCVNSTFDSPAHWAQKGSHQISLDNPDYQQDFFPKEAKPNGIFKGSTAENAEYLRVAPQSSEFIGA

The compound `CN(C)C/C=C/C(=O)Nc1cc2c(Nc3ccc(F)c(Cl)c3)ncnc2cc1O[C@H]1CCOC1` [afatinib, reference compound] had a GI50 in the assay with H3255 cells of 0.6 nM.

On to `C#Cc1cccc(Nc2ncnc3cc(OCCOC)c(OCCOC)cc23)c1` [erlotinib], for which, in the assay with EGFR [1], the “time-dependent change of ξEV” value is “increased”.

Consider `CN(C)C/C=C/C(=O)Nc1cc2c(Nc3ccc(F)c(Cl)c3)ncnc2cc1OCCCNC(=O)CNC(=O)OC1CC/C=C/CCC1` (stereo not drawn) [probe A3, (E)-cyclooct-4-en-1-yl (2-((3-((4-((3-chloro-4-fluorophenyl)amino)-6-((E)-4-(dimethylamino)but-2-enamido)quinazolin-7-yl)oxy)propyl)amino)-2-oxoethyl)carbamate], for which the “signal-to-noise ratio of EGFR labeling among the click probes” value at EGFR [2] (100 nM probe, with or without afatinib 1 μM) is on record as “best signal-to-noise ratio”. In addition, the “incubation time to maximal labeling” value on EGFR [2] (probe 100 nM, H3255 cells) stood at 1 h. Further, the “live-cell EGFR labeling efficiency” value on EGFR [2] (probe 100 nM, H3255 cells, 15 min incubation) is > 90% and 90%. The GI50 in the assay with H3255 cells is 1.8 nM.
